How the values were obtained:
[1] = system: diluted whole blood (T cell IFN-γ production); assay: Whole blood ELISpot, CD3/CD28-stimulated IFN-γ production (Example 2); format: cell-based, human
Procedure: Innate and adaptive immune function was assessed using ELISpot analysis by measurement of the production of IFN-γ and TNF-α in ex vivo-stimulated cells following overnight culture. Capture Ab precoated 96-well polyvinylidene difluoride-backed strip plates were used for single color enzymatic assays (ImmunoSpot; Cellular Technology [CTL], Cleveland, Ohio) for detection of human IFN-γ and TNF-α. ELISpot culture procedure was followed as directed using instructions from the ELISpot kit. Samples were run in duplicate for each test condition. Plates were prepared with stimulant and were incubated at 37° C. and 5% CO2 for 30 min prior to plating cells. Identical conditions were prepared for comparison of whole blood assay to PBMC assay, and culture media alone was used as a negative control. Combination of 500 ng/ml of anti-CD3 (clone HIT3a; BioLegend) with 2.5 μg/ml of anti-CD28 (clone CD28.2; BioLegend) Abs were used to induce IFN-γ, and 2.5 ng/ml LPS (from Salmonella abortus equi S-form, ALX-581-009; Enzo Life Sciences, Farmingdale, N.Y.) was used to induce TNF-α wells. Total well volume for all samples was 200 μl. PBMCs were plated into wells in quantities of 2.5×10^4 cells per well for IFN-γ and 2.5×10^3 cells per well for TNF-α. The relevant volume for 5×10^4 leukocytes of diluted whole blood (in culture media) was plated in each well based on complete blood counts performed in the clinical research core laboratory at Washington University. PBMCs and diluted whole blood were costimulated with and without recombinant human IL-7 (Escherichia coli-derived protein, product no. 207-IL; R&D Systems, Minneapolis, Minn.). ELISpot assays were incubated overnight for 18-22 h at 37° C. and 5% CO2 as previously described (29). […]
(§1) Samples were scanned, analyzed, and quality controlled for spot count, spot area, and TWI using a Cellular Technology series 6 ImmunoSpot Universal Analyzer with ImmunoSpot 7.0 professional software (Cellular Technology Analyzers, Shaker Heights, Ohio). […]
(§2) The number of cytokine-secreting cells present in each ELISpot well is referred to as spot-forming units (SFU) and is reported in two distinct ways. […] The number of lymphocytes in each well was determined based upon the absolute lymphocyte count as measured by the patients' complete blood count. For ELISpot studies involving PBMCs, flow cytometry was performed on the PBMC fraction, and the number of lymphocytes, monocytes, and residual neutrophils were determined. […] Samples were acquired on FACScan (Becton Dickenson, Franklin Lakes, N.J.) with a five-color modification (CyTek Biosciences, Fremont, Calif.) and analyzed using FlowJo 10.2 (FlowJo, Ashland, Oreg.) as previously described (28). […]

[2] = system: fungal sepsis; details: in vivo; cited from earlier work
[3] = system: PBMCs (T cell IFN-γ production); assay: PBMC ELISpot, CD3/CD28-stimulated IFN-γ production (Example 2); format: cell-based, human
Procedure: Fresh whole blood samples were processed within 90 min of collection as previously described (28). Briefly, blood was diluted in an equal volume of PBS and layered carefully on Ficoll Paque PLUS (GE Healthcare). The PBMC fraction was isolated following centrifugation at 500×g for 30 min at room temperature. The number of total PBMCs was determined with a Vi-CELL Viability Analyzer (Beckman Coulter, Brea, Calif.). Flow cytometry was performed on PBMC fraction for cell typing.
Innate and adaptive immune function was assessed using ELISpot analysis by measurement of the production of IFN-γ and TNF-α in ex vivo-stimulated cells following overnight culture. […] PBMCs were plated into wells in quantities of 2.5×10^4 cells per well for IFN-γ and 2.5×10^3 cells per well for TNF-α. […]
as §1
The number of cytokine-secreting cells present in each ELISpot well is referred to as spot-forming units (SFU) and is reported in two distinct ways. […] The number of lymphocytes in each well was determined based upon the absolute lymphocyte count as measured by the patients' complete blood count. […]

[4] = system: PBMCs (T cell IFN-γ production); details: critically ill COVID 19 disease patients, reference 18; cited from earlier work
[5] = system: diluted whole blood (myeloid cell TNF-α production); assay: Whole blood ELISpot, LPS-stimulated TNF-α production (Example 2); format: cell-based, human
Procedure: Innate and adaptive immune function was assessed using ELISpot analysis by measurement of the production of IFN-γ and TNF-α in ex vivo-stimulated cells following overnight culture. Capture Ab precoated 96-well polyvinylidene difluoride-backed strip plates were used for single color enzymatic assays (ImmunoSpot; Cellular Technology [CTL], Cleveland, Ohio) for detection of human IFN-γ and TNF-α. ELISpot culture procedure was followed as directed using instructions from the ELISpot kit. Samples were run in duplicate for each test condition. Plates were prepared with stimulant and were incubated at 37° C. and 5% CO2 for 30 min prior to plating cells. Identical conditions were prepared for comparison of whole blood assay to PBMC assay, and culture media alone was used as a negative control. […] PBMCs were plated into wells in quantities of 2.5×10^4 cells per well for IFN-γ and 2.5×10^3 cells per well for TNF-α. […]
as §1, §2

IL-7: recombinant human IL-7, immunoadjuvant and potent T cell activator; R&D Systems ex vivo, RevImmune for patients
effect of IL-7 on IFN-γ SFUs ([1]; healthy subjects and CINS patients): significantly increased | increase in IFN-γ spot numbers with IL-7 ([1]; sepsis nonsurvivors): 312%±240 | increase in IFN-γ spot numbers with IL-7 ([1]; sepsis survivors): 102%±32 | increase in the number of IFN-γ spots when stimulated with IL-7 ([1]; septic patients overall (n=19), CD3/CD28 + IL-7, p<0.005): 172%±77 | survival in a 2-hit animal model of fungal sepsis [2]: increase survival | effect of IL-7 on IFN-γ SFUs ([3]; PBMC, healthy subjects and CINS patients): significantly increased | effect of IL-7 on T cell IFN-γ production ([3]; PBMCs, septic patients, p<0.0001): restore T cell IFN-γ production | lymphocyte IFN-γ production on ex vivo addition of IL-7 to PBMCs [4]: doubled | change in TNF-α SFUs with IL-7 ([5]; CINS): no change | change in TNF-α SFUs with IL-7 ([5]; healthy subjects, p<0.01): significant decrease | effect of IL-7 on the number of TNF-α-producing cells ([5]; septic patients, LPS + IL-7): does not increase
